Source: the supplement of paper PMC10307832

What was measured:
Assay in all cases: relative viability (nuclei count vs DMSO), 5 days (fraction); higher = more cells survive
EPLC-272H = test system: EPLC-272H
In short: (§1)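 Nuclei were stained with Hoechst during a one-step fixation (final 0.05% Triton X-100, 1% formaldehyde, 1 ug/ml Hoechst) carried out 5 days after dosing, then counted on 4× images. The cells, lung cancer lines in 1536-well plates, had been dosed by pin tool the day after seeding with one drug alone or a fixed anchor-drug dose plus five library-drug doses (not always all listed) in √10 steps. Relative viability is the nuclei count in treated wells divided by that in vehicle wells, and each value is the median of duplicate plates.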

NCI-H358 = test system: NCI-H358
In short: as §1

NCI-H1793 = test system: NCI-H1793
In short: as §1

NCI-H647 = test system: NCI-H647
In short: as §1

SW 1573 = test system: SW 1573
In short: as §1

NCI-H1734 = test system: NCI-H1734
In short: as §1

RERF-LC-KJ = test system: RERF-LC-KJ
In short: as §1

ABC-1 = test system: ABC-1
In short: as §1

UMC-11 = test system: UMC-11
In short: as §1

NCI-H322M = test system: NCI-H322M
In short: as §1

NCI-H2347 = test system: NCI-H2347
In short: as §1

HCC-15 = test system: HCC-15
In short: as §1

NCI-H2009 = test system: NCI-H2009
In short: as §1

NCI-H1944 = test system: NCI-H1944
In short: as §1

LC-2-ad = test system: LC-2-ad
In short: as §1

LK-2 = test system: LK-2
In short: as §1

NCI-H838 = test system: NCI-H838
In short: as §1

NCI-H1915 = test system: NCI-H1915
In short: as §1

NCI-H2023 = test system: NCI-H2023
In short: as §1

A-427 = test system: A-427
In short: as §1

Cc1csc(=NC2CCCCC2)n1/N=C/c1ccc(O)c(O)c1O [MIM1] + CS(=O)(=O)CCNCc1ccc(-c2ccc3ncnc(Nc4ccc(OCc5cccc(F)c5)c(Cl)c4)c3c2)o1 [Lapatinib] (partner 2 µM)
relative viability (EPLC-272H; first compound 0.2 µM): 0.884
relative viability (EPLC-272H; first compound 0.6325 µM): 0.886
relative viability (EPLC-272H; first compound 2 µM): 0.722
relative viability (EPLC-272H; first compound 6.325 µM): 0.792
relative viability (EPLC-272H; first compound 20 µM): 0.528
relative viability (NCI-H358; first compound 0.2 µM): 0.506
relative viability (NCI-H358; first compound 0.6325 µM): 0.475
relative viability (NCI-H358; first compound 2 µM): 0.433
relative viability (NCI-H358; first compound 6.325 µM): 0.36
relative viability (NCI-H358; first compound 20 µM): 0.303
relative viability (NCI-H1793; first compound 0.2 µM): 0.768
relative viability (NCI-H1793; first compound 0.6325 µM): 0.623
relative viability (NCI-H1793; first compound 2 µM): 0.645
relative viability (NCI-H1793; first compound 6.325 µM): 0.669
relative viability (NCI-H1793; first compound 20 µM): 0.459
relative viability (NCI-H647; first compound 0.2 µM): 1.03
relative viability (NCI-H647; first compound 0.6325 µM): 1.04
relative viability (NCI-H647; first compound 2 µM): 1.02
relative viability (NCI-H647; first compound 6.325 µM): 0.633
relative viability (NCI-H647; first compound 20 µM): 0.104
relative viability (SW 1573; first compound 0.2 µM): 1.07
relative viability (SW 1573; first compound 0.6325 µM): 1.15
relative viability (SW 1573; first compound 2 µM): 1.08
relative viability (SW 1573; first compound 6.325 µM): 0.993
relative viability (SW 1573; first compound 20 µM): 0.83
relative viability (NCI-H1734; first compound 0.2 µM): 1.18
relative viability (NCI-H1734; first compound 0.6325 µM): 0.874
relative viability (NCI-H1734; first compound 2 µM): 0.971
relative viability (NCI-H1734; first compound 6.325 µM): 0.823
relative viability (NCI-H1734; first compound 20 µM): 0.198
relative viability (RERF-LC-KJ; first compound 0.2 µM): 0.769
relative viability (RERF-LC-KJ; first compound 0.6325 µM): 0.772
relative viability (RERF-LC-KJ; first compound 2 µM): 0.795
relative viability (RERF-LC-KJ; first compound 6.325 µM): 0.75
relative viability (RERF-LC-KJ; first compound 20 µM): 0.3
relative viability (ABC-1; first compound 0.2 µM): 1.32
relative viability (ABC-1; first compound 0.6325 µM): 1.24
relative viability (ABC-1; first compound 2 µM): 1.31
relative viability (ABC-1; first compound 6.325 µM): 1.06
relative viability (ABC-1; first compound 20 µM): 1.11
relative viability (UMC-11; first compound 0.2 µM): 1.22
relative viability (UMC-11; first compound 2 µM): 1.17
relative viability (UMC-11; first compound 6.325 µM): 0.664
relative viability (UMC-11; first compound 20 µM): 0.181
relative viability (NCI-H322M; first compound 0.2 µM): 0.653
relative viability (NCI-H322M; first compound 0.6325 µM): 0.531
relative viability (NCI-H322M; first compound 2 µM): 0.532
relative viability (NCI-H322M; first compound 6.325 µM): 0.577
relative viability (NCI-H322M; first compound 20 µM): 0.801
relative viability (NCI-H2347; first compound 0.2 µM): 0.941
relative viability (NCI-H2347; first compound 0.6325 µM): 1.07
relative viability (NCI-H2347; first compound 2 µM): 0.999
relative viability (NCI-H2347; first compound 6.325 µM): 0.59
relative viability (NCI-H2347; first compound 20 µM): 0.399
relative viability (HCC-15; first compound 0.2 µM): 0.844
relative viability (HCC-15; first compound 0.6325 µM): 0.554
relative viability (HCC-15; first compound 2 µM): 0.98
relative viability (HCC-15; first compound 6.325 µM): 0.415
relative viability (HCC-15; first compound 20 µM): 0.102
relative viability (NCI-H2009; first compound 0.2 µM): 1.04
relative viability (NCI-H2009; first compound 0.6325 µM): 0.876
relative viability (NCI-H2009; first compound 2 µM): 1.1
relative viability (NCI-H2009; first compound 6.325 µM): 0.449
relative viability (NCI-H2009; first compound 20 µM): 0.133
relative viability (NCI-H1944; first compound 0.2 µM): 0.889
relative viability (NCI-H1944; first compound 0.6325 µM): 0.805
relative viability (NCI-H1944; first compound 2 µM): 0.491
relative viability (NCI-H1944; first compound 6.325 µM): 0.535
relative viability (NCI-H1944; first compound 20 µM): 0.445
relative viability (LC-2-ad; first compound 0.2 µM): 0.938
relative viability (LC-2-ad; first compound 0.6325 µM): 0.506
relative viability (LC-2-ad; first compound 2 µM): 0.888
relative viability (LC-2-ad; first compound 6.325 µM): 0.352
relative viability (LC-2-ad; first compound 20 µM): 0.132
relative viability (LK-2; first compound 0.2 µM): 0.911
relative viability (LK-2; first compound 0.6325 µM): 0.881
relative viability (LK-2; first compound 2 µM): 0.697
relative viability (LK-2; first compound 6.325 µM): 0.835
relative viability (LK-2; first compound 20 µM): 0.268
relative viability (NCI-H838; first compound 0.2 µM): 0.941
relative viability (NCI-H838; first compound 0.6325 µM): 0.885
relative viability (NCI-H838; first compound 2 µM): 0.815
relative viability (NCI-H838; first compound 6.325 µM): 0.672
relative viability (NCI-H838; first compound 20 µM): 0.183
relative viability (NCI-H1915; first compound 0.2 µM): 0.996
relative viability (NCI-H1915; first compound 0.6325 µM): 0.659
relative viability (NCI-H1915; first compound 2 µM): 0.82
relative viability (NCI-H1915; first compound 6.325 µM): 0.536
relative viability (NCI-H1915; first compound 20 µM): 0.357
relative viability (NCI-H2023; first compound 0.2 µM): 0.947
relative viability (NCI-H2023; first compound 0.6325 µM): 0.716
relative viability (NCI-H2023; first compound 2 µM): 0.683
relative viability (NCI-H2023; first compound 6.325 µM): 0.253
relative viability (NCI-H2023; first compound 20 µM): 0.0707
relative viability (A-427; first compound 0.2 µM): 1.05
relative viability (A-427; first compound 0.6325 µM): 1.05
relative viability (A-427; first compound 2 µM): 0.868
relative viability (A-427; first compound 6.325 µM): 0.841
relative viability (A-427; first compound 20 µM): 0.265
